Laboratory results: paper PMC7157554, “Anti-Trypanosomal Proteasome Inhibitors Cure Hemolymphatic and Meningoencephalic Murine Infection Models of African Trypanosomiasis” (Tropical Medicine and Infectious Disease, 2020)
Like-named read-outs stand apart in the source and are kept apart here.

Key:
[1] = test system: T. brucei PSMB4^WT; experiment: Growth inhibition of T. brucei expressing wild-type 20S proteasome β4 subunit; format: cell-based; conditions: Trypanosoma brucei, read-out: T. brucei PSMB4^WT EC50
Protocol: (§1) For determination of 50% growth inhibition, all compounds were dissolved in DMSO, and 200 nL of threefold serially diluted compounds were added into solid-bottom 384-well white plates (Greiner Bio-One, Kremsmunster, Austria) by an Echo 555 acoustic liquid-handling system. Forty microliters of 10^4 cells/mL of T. b. brucei parasites was added into each well, and the plates were incubated in a 5% CO2 incubator at 37 °C for 48 h. Viability of parasites were determined by measuring intracellular ATP levels, using CellTiter-Glo (CTG) luminescent cell viability reagent (Promega, Madison, Wisconsin WI, USA). The EC50 values were determined by using GraphPad Prism software. Growth inhibition assays for all clinical isolates were carried out as described earlier. All experiments had two technical replicates and three biological replicates. Appropriate statistical tests were used for evaluating significance, and mean ± SEM is represented in the tables.

[2] = test system: T. brucei PSMB4^F24L; experiment: Growth inhibition of T. brucei expressing F24L mutant 20S proteasome β4 subunit; format: cell-based, Trypanosoma brucei
Protocol: as §1

[3] = test system: T. b. brucei (GVR35-VSL2); experiment: Meningoencephalic mouse model (stage 2 HAT efficacy model, GVR35) with bioluminescence imaging; format: in vivo
Protocol: The GVR35 mouse CNS model mimics the second (meningoencephalic) stage of African trypanosomiasis. Female CD1 mice (~8 weeks old, from Charles River) were injected intraperitoneally (i.p.) with 3 × 10^4 T. b. brucei (GVR35-VSL2) bloodstream-form parasites. As controls, a group of three untreated mice and another group of three mice treated with diminazene aceturate (DA) were included. […] Mice treated with DA usually relapse after 42 days post-infection. […]
Blood parasitemia was quantified weekly from day 21/22, by microscopy of blood from the tail vein. Mice were imaged for bioluminescence using an in vivo imaging system (IVIS) prior to treatment on day 21/22, and weekly after treatment, as described previously. Briefly, mice, in groups of three, were injected i.p. with 150 mg of D-luciferin (Promega) per kilogram body weight in PBS and imaged after 10 min, using an IVIS Spectrum (PerkinElmer, Waltham, Massachusetts MA, USA). Living Image Software (PerkinElmer) was used for acquisition and analysis of bioluminescence imaging data. Bioluminescence in the same rectangular region of interest (ROI) on whole-body mouse images was quantified and is shown in total flux (photons per second). Images were cropped to the ROIs and composites of images from representative mice are shown. Uncured mice were euthanized within 1 or 2 days of parasite detection in the blood. Cured mice were euthanized between day 92 and 101 post-infection. All the results from the individual experiments were reported as number of mice cured over total number of mice treated. A Kaplan–Meier plot was used for representing the number of mice cured at different treatment doses.

[4] = test system: T. b. gambiense; experiment: Growth inhibition of T. b. gambiense strains; format: cell-based; conditions: Trypanosoma brucei, mean ± SD
[5] = test system: T. b. rhodesiense; experiment: Growth inhibition of T. b. rhodesiense strains; format: cell-based; conditions: Trypanosoma brucei, mean ± SD
[6] = test system: T. b. brucei; experiment: Growth inhibition of T. b. brucei strains BS221, BS221 (P2 KO), STIB950; format: cell-based; conditions: Trypanosoma brucei, mean ± SD
Protocol: The T. b. brucei strain Lister 427 (bloodstream form) parasites were continuously grown in complete HMI-9 medium supplemented with 10% Serum Plus and 10% heat-inactivated fetal bovine serum (FBS). All other parasite strains were cultured as described elsewhere.
as §1, with “Appropriate statistical tests were used for evaluating significance, and mean ± SEM is represented in the tables.” left out

[7] = stage 2 HAT mouse model; cited from earlier work

Structure (SMILES): CC(C)C[C@H](NC(=O)[C@H](Cc1ccccc1)NC(=O)c1cnccn1)B(O)O [Bortezomib, reference compound]
- EC50 [1]: 0.94 ± 0.05 nM
- Shift in growth inhibition concentration, F24L mutant vs wild-type [2]: equipotent
- EC50 ([2]; Trypanosoma brucei, read-out: T. brucei PSMB4^F24L EC50): 1.1 ± 0.26 nM

Structure (SMILES): N=C(N)c1ccc(/N=N/Nc2ccc(C(=N)N)cc2)cc1 [Diminazene, diminazene aceturate, reference compound]
- % Cured ([3]; 40 mg/kg QD): 0%
- Mean Day of Relapse ([3]; 40 mg/kg QD): 42 days post infection
- Mice Cured/Total ([3]; 40 mg/kg QD (control compound lacking brain penetration)): 0/3

Structure (SMILES): Nc1nc(N)nc(Nc2ccc([As]3SCC(CO)S3)cc2)n1 (stereo not shown) [Melarsoprol, reference compound]
- EC50 ([4]; GAMBIENSE / STIB930, read-out: T. b. gambiense EC50, strain STIB930): 7.1 ± 2.7 nM
- EC50 ([4]; GAMBIENSE, read-out: T. b. gambiense EC50, strain K048): 10.2 ± 1.9 nM
- EC50 ([4]; GAMBIENSE, read-out: T. b. gambiense EC50, strain R130): 7.7 ± 3.1 nM
- EC50 ([5]; RHODESIENSE / STIB900, read-out: T. b. rhodesiense EC50, strain STIB900): 3.9 ± 2 nM
- EC50 ([5]; RHODESIENSE / STIB900, read-out: T. b. rhodesiense EC50, strain STIB900 Mel^R (melarsoprol-resistant)): 95.5 ± 24 nM
- EC50 ([5]; RHODESIENSE / STIB900, read-out: T. b. rhodesiense EC50, strain STIB900 Pent^R (pentamidine-resistant)): 46.8 ± 19 nM
- EC50 ([6]; STIB950, read-out: T. b. brucei EC50, strain STIB950): 16.9 ± 8.8 nM
- EC50 ([6]; read-out: T. b. brucei EC50, strain BS221 (P2 KO)): 37.7 ± 14.8 nM
- EC50 ([6]; read-out: T. b. brucei EC50, strain BS221): 4.7 ± 1.8 nM

Structure (SMILES): N=C(N)c1ccc(OCCCCCOc2ccc(C(=N)N)cc2)cc1 [Pentamidine, reference compound]
- EC50 ([4]; GAMBIENSE / STIB930, strain STIB930, read-out: T. b. gambiense EC50): 1.4 ± 0.9 nM
- EC50 ([4]; GAMBIENSE, strain K048, read-out: T. b. gambiense EC50): 33.9 ± 16 nM
- EC50 ([4]; GAMBIENSE, strain R130, read-out: T. b. gambiense EC50): 13.5 ± 4 nM
- EC50 ([5]; RHODESIENSE / STIB900, strain STIB900 Mel^R (melarsoprol-resistant), read-out: T. b. rhodesiense EC50): 217 ± 86 nM
- EC50 ([5]; RHODESIENSE / STIB900, strain STIB900 Pent^R (pentamidine-resistant), read-out: T. b. rhodesiense EC50): 203 ± 54 nM
- EC50 ([6]; STIB950, strain STIB950, read-out: T. b. brucei EC50): 0.5 ± 0.2 nM
- EC50 ([6]; strain BS221 (P2 KO), read-out: T. b. brucei EC50): 3.1 ± 0.4 nM
- EC50 ([6]; strain BS221, read-out: T. b. brucei EC50): 0.3 ± 0.1 nM

Structure (SMILES): CC1(C)OB(O)c2cc(NC(=O)c3ccc(F)cc3C(F)(F)F)ccc21 [acoziborole]
- Curative dose [7]: 25 mg/kg

Structure (SMILES): CSc1ccc(OCc2ncc([N+](=O)[O-])n2C)cc1 [fexinidazole]
- Curative dose [7]: 200 mg/kg
